Legend:
[1] = refractive index (Na D-line) (dimensionless); details: 298.15 K; 101.33 kPa; Liquid; Standard Abbe refractometry
[2] = 298.15 K; for surface tension liquid-gas: Drop volume; for mass density: 101.33 kPa, Liquid
[3] = refractive index (Na D-line) (dimensionless); xn = mol fraction of the nth substance listed; details: 298.15 K, 101.3 kPa, Liquid, Standard Abbe refractometry
[4] = xn = mol fraction of the nth substance listed; details: 298.15 K; for surface tension liquid-gas: Drop volume; for mass density: 101.3 kPa, Liquid

CCCCCCCC [octane]
Details | mass density [kg/m3] | refractive index | surface tension liquid-gas [mN/m]
[1] | – | 1.3951 | –
[2] | 698.5 | – | 21.17

CCCCO [butan-1-ol]
Details | mass density [kg/m3] | refractive index | surface tension liquid-gas [mN/m]
[1] | – | 1.3973 | –
[2] | 805.76 | – | 24.02

CCO [ethanol]
Details | mass density [kg/m3] | refractive index | surface tension liquid-gas [mN/m]
[1] | – | 1.3593 | –
[2] | 785.15 | – | 21.74

CCCCCCCCO [octan-1-ol]
Details | mass density [kg/m3] | refractive index | surface tension liquid-gas [mN/m]
[1] | – | 1.4274 | –
[2] | 821.63 | – | 27.13

CCCCCCCO [heptan-1-ol]
Details | mass density [kg/m3] | refractive index | surface tension liquid-gas [mN/m]
[1] | – | 1.4224 | –
[2] | 818.75 | – | 26.47

CCCCCO [pentan-1-ol]
Details | mass density [kg/m3] | refractive index | surface tension liquid-gas [mN/m]
[1] | – | 1.408 | –
[2] | 810.83 | – | 24.97

CCCCCO [pentan-1-ol] + CCCCCCCC
Details | refractive index, [3] | surface tension liquid-gas, [4] [mN/m]
x2 = 0.0189 | 1.4075 | –
x2 = 0.115 | 1.4058 | 23.88
x2 = 0.1459 | 1.4052 | 23.6
x2 = 0.1629 | 1.4049 | 23.5
x2 = 0.2727 | 1.403 | 22.8
x2 = 0.3271 | 1.4022 | 22.54
x2 = 0.4586 | 1.4003 | 22.06
x2 = 0.4927 | 1.3999 | 21.96
x2 = 0.5188 | 1.3996 | 21.91
x2 = 0.5951 | 1.3986 | 21.75
x2 = 0.655 | 1.3979 | 21.65
x2 = 0.6713 | 1.3977 | 21.63
x2 = 0.7676 | 1.3968 | 21.5
x2 = 0.7932 | 1.3966 | 21.46
x2 = 0.834 | 1.3963 | 21.41
x2 = 0.8869 | 1.3958 | 21.35
x2 = 0.9457 | 1.3955 | 21.27

CCCO [propan-1-ol]
Details | mass density [kg/m3] | refractive index | surface tension liquid-gas [mN/m]
[1] | – | 1.383 | –
[2] | 799.62 | – | 23.39

CCCCCCO [hexan-1-ol]
Details | mass density [kg/m3] | refractive index | surface tension liquid-gas [mN/m]
[1] | – | 1.4159 | –
[2] | 815.15 | – | 25.73

CCCCCCCC [octane] + CCO
Details | mass density [kg/m3] | refractive index | surface tension liquid-gas [mN/m]
[3], x1 = 0.0686 | – | 1.3641 | –
[3], x1 = 0.1132 | – | 1.367 | –
[3], x1 = 0.1721 | – | 1.3705 | –
[3], x1 = 0.1834 | – | 1.3711 | –
[3], x1 = 0.2867 | – | 1.3762 | –
[3], x1 = 0.35 | – | 1.3789 | –
[3], x1 = 0.3571 | – | 1.3792 | –
[3], x1 = 0.4544 | – | 1.3827 | –
[3], x1 = 0.4898 | – | 1.3839 | –
[3], x1 = 0.5401 | – | 1.3853 | –
[3], x1 = 0.5865 | – | 1.3866 | –
[3], x1 = 0.6299 | – | 1.3877 | –
[3], x1 = 0.6457 | – | 1.388 | –
[3], x1 = 0.669 | – | 1.3885 | –
[3], x1 = 0.765 | – | 1.3906 | –
[3], x1 = 0.8191 | – | 1.3917 | –
[3], x1 = 0.9095 | – | 1.3934 | –
[3], x1 = 0.9212 | – | 1.3939 | –
[4], x1 = 0.0131 | 781.56 | – | –
[4], x1 = 0.0523 | 771.81 | – | –
[4], x1 = 0.0686 | – | – | 21.37
[4], x1 = 0.0788 | 766.05 | – | –
[4], x1 = 0.1132 | – | – | 21.2
[4], x1 = 0.1433 | 758.82 | – | –
[4], x1 = 0.1721 | – | – | 21.06
[4], x1 = 0.1881 | 754.27 | – | –
[4], x1 = 0.2228 | 747.52 | – | –
[4], x1 = 0.2616 | 742.94 | – | –
[4], x1 = 0.2867 | – | – | 20.88
[4], x1 = 0.3011 | 738.29 | – | –
[4], x1 = 0.3571 | – | – | 20.82
[4], x1 = 0.3725 | 734.06 | – | –
[4], x1 = 0.3985 | 727.44 | – | –
[4], x1 = 0.4536 | 725.27 | – | –
[4], x1 = 0.4544 | – | – | 20.77
[4], x1 = 0.4898 | – | – | 20.77
[4], x1 = 0.5175 | 721.13 | – | –
[4], x1 = 0.5401 | – | – | 20.78
[4], x1 = 0.5832 | 716.94 | – | –
[4], x1 = 0.5865 | – | – | 20.79
[4], x1 = 0.6299 | – | – | 20.8
[4], x1 = 0.6457 | – | – | 20.81
[4], x1 = 0.669 | – | – | 20.84
[4], x1 = 0.6709 | 713.14 | – | –
[4], x1 = 0.7226 | 708.8 | – | –
[4], x1 = 0.765 | – | – | 20.89
[4], x1 = 0.8041 | – | – | 20.92
[4], x1 = 0.8191 | – | – | 20.94
[4], x1 = 0.8201 | 706.53 | – | –
[4], x1 = 0.8707 | 702.91 | – | –
[4], x1 = 0.9095 | – | – | 21.01
[4], x1 = 0.9212 | – | – | 21.05

CCCCCCO [hexan-1-ol] + CCCCCCCC
Details | refractive index, [3] | surface tension liquid-gas, [4] [mN/m]
x2 = 0.0515 | 1.4147 | 25.19
x2 = 0.0944 | 1.4136 | 24.79
x2 = 0.16 | 1.4119 | 24.22
x2 = 0.1837 | 1.4113 | 24.03
x2 = 0.2785 | 1.4091 | 23.38
x2 = 0.3309 | – | 23.08
x2 = 0.3311 | 1.4079 | –
x2 = 0.4619 | 1.4049 | 22.48
x2 = 0.4987 | 1.404 | 22.32
x2 = 0.5049 | 1.4039 | 22.3
x2 = 0.5984 | 1.402 | 22.02
x2 = 0.6717 | 1.4007 | 21.83
x2 = 0.7019 | 1.4 | 21.74
x2 = 0.7478 | 1.3992 | 21.65
x2 = 0.7794 | 1.3987 | 21.58
x2 = 0.8504 | 1.3974 | 21.45
x2 = 0.895 | 1.3966 | 21.38
x2 = 0.959 | 1.3956 | 21.25

CCCCCCCC [octane] + CCCO
Details | refractive index, [3] | surface tension liquid-gas, [4] [mN/m]
x1 = 0.0237 | 1.3835 | –
x1 = 0.123 | 1.3852 | 22.38
x1 = 0.1859 | 1.3862 | 22.05
x1 = 0.2349 | 1.3869 | 21.81
x1 = 0.29 | 1.3877 | 21.66
x1 = 0.3454 | 1.3884 | 21.53
x1 = 0.3547 | 1.3885 | 21.51
x1 = 0.4493 | 1.3896 | 21.36
x1 = 0.5154 | 1.3903 | 21.3
x1 = 0.5218 | 1.3904 | 21.29
x1 = 0.6224 | 1.3914 | 21.22
x1 = 0.6308 | 1.3915 | 21.21
x1 = 0.6938 | 1.3921 | 21.21
x1 = 0.7592 | 1.3927 | 21.17
x1 = 0.7884 | 1.393 | 21.17
x1 = 0.8449 | 1.3935 | 21.16
x1 = 0.8918 | 1.394 | 21.16
x1 = 0.9245 | 1.3943 | 21.16

CCCCCCCC [octane] + CCCCO
Details | refractive index, [3] | surface tension liquid-gas, [4] [mN/m]
x1 = 0.0453 | 1.397 | 23.65
x1 = 0.113 | 1.3966 | 23.15
x1 = 0.1636 | 1.3964 | 22.84
x1 = 0.1788 | 1.3963 | 22.74
x1 = 0.2956 | 1.3957 | 22.2
x1 = 0.3281 | – | 22.08
x1 = 0.3526 | 1.3955 | 21.99
x1 = 0.4467 | 1.3952 | 21.73
x1 = 0.4857 | 1.3951 | 21.65
x1 = 0.5747 | 1.3949 | 21.49
x1 = 0.5886 | – | 21.49
x1 = 0.6326 | 1.3948 | 21.42
x1 = 0.6918 | 1.3948 | 21.36
x1 = 0.777 | 1.3948 | 21.29
x1 = 0.8167 | 1.3948 | 21.28
x1 = 0.865 | 1.3948 | 21.24
x1 = 0.9376 | 1.3949 | 21.21

CCCCCCCCO [octan-1-ol] + CCCCCCCC
Details | refractive index, [3] | surface tension liquid-gas, [4] [mN/m]
x2 = 0.0641 | 1.4257 | 26.39
x2 = 0.12 | – | 25.83
x2 = 0.1378 | 1.4231 | 25.59
x2 = 0.1501 | – | 25.5
x2 = 0.2923 | 1.418 | 24.29
x2 = 0.3168 | 1.4172 | 24.11
x2 = 0.3554 | 1.4159 | 23.84
x2 = 0.4526 | 1.4128 | 23.23
x2 = 0.495 | 1.4114 | 23
x2 = 0.5413 | 1.41 | 22.76
x2 = 0.6269 | 1.4072 | 22.38
x2 = 0.6566 | 1.4062 | 22.24
x2 = 0.6897 | 1.4051 | 22.12
x2 = 0.7547 | 1.403 | 21.88
x2 = 0.8114 | 1.4012 | 21.7
x2 = 0.8617 | 1.3995 | 21.55
x2 = 0.8832 | 1.3989 | 21.51
x2 = 0.9635 | 1.3961 | –

CCCCCCCO [heptan-1-ol] + CCCCCCCC
Details | refractive index, [3] | surface tension liquid-gas, [4] [mN/m]
x2 = 0.0616 | 1.4205 | –
x2 = 0.0995 | 1.4194 | 25.35
x2 = 0.1699 | 1.4174 | 24.68
x2 = 0.1767 | 1.417 | 24.63
x2 = 0.2957 | 1.4136 | 23.72
x2 = 0.3286 | 1.4126 | 23.52
x2 = 0.353 | 1.4119 | 23.37
x2 = 0.4567 | 1.4091 | 22.79
x2 = 0.4918 | 1.4081 | 22.65
x2 = 0.5587 | 1.4062 | 22.38
x2 = 0.5956 | 1.4051 | 22.24
x2 = 0.6564 | 1.4036 | 22.04
x2 = 0.6626 | – | 22.01
x2 = 0.6629 | 1.4034 | –
x2 = 0.783 | 1.4002 | 21.68
x2 = 0.7981 | 1.3999 | 21.63
x2 = 0.8409 | 1.3988 | 21.53
x2 = 0.9111 | 1.3971 | 21.38
x2 = 0.958 | – | 21.28
